In PMC11767582, “Synthesis and Biological Evaluation of New cis-Restricted Triazole Analogues of Combretastatin A-4” (Molecules, 2025):
Read-outs that look alike come from different tables or passages of the source.

What was measured:
[1] = test system: human lung cancer cell line A-549; test: MTT cytotoxicity (growth inhibition) assay, A-549; assay type: cell-based
Procedure: (§1) • Cell culture. Cell culture media were purchased from Gibco (Grand Island, NY, USA). Fetal bovine serum (FBS) was a product of Harlan-Seralab (Belton, UK). Supplements and other chemicals not listed in this section were obtained from Sigma Chemical Co. (St. Louis, MO, USA). Plastics for cell culture were supplied by Thermo Scientific BioLite. All tested compounds were dissolved in DMSO at a concentration of 20 mM and stored at –20 °C until use. HT-29, A-549, and HEK-293 cell lines were maintained in a Dulbecco’s modified Eagle’s medium (DMEM) containing glucose (1 g/L), glutamine (2 mM), penicillin (50 μg/mL), streptomycin (50 μg/mL), and amphotericin B (1.25 μg/mL), supplemented with 10% FBS. • Cytotoxicity assays. 5 × 10^3 cells per well were incubated in 96-well plates with serial dilutions of the tested compounds in a total volume of 100 μL of their growth media. 3-(4,5-dimethylthiazol-2-yl)-2,5-diphenyltetrazolium bromide (MTT; Sigma Chemical Co.) dye reduction assay in 96-well microplates was used. Then, 10 μL of MTT (5 mg/mL in phosphate-buffered saline, PBS) was added to each well after 2 days of incubation (37 °C, 5% CO2 in a humid atmosphere). The plate was incubated for a further 3 h (37 °C). After that, the supernatant was discarded and 100 μL of DMSO were added in order to dissolve formazan crystals. The absorbance was read at 550 nm by spectro-photometry. For all concentrations of compound, cell viability was expressed as the percentage of the ratio between the mean absorbance of treated cells and the mean absorbance of untreated cells. Three independent experiments were performed, and the IC50 values (i.e., concentration half inhibiting cell proliferation) were graphically determined using GraphPad Prism 9 software.

[2] = MTT cytotoxicity (growth inhibition) assay, HEK-293 (non-tumor); assay type: cell-based; details: human, HEK-293 embryonic kidney cells (non-tumor)
Procedure: as §1

[3] = test system: human colon cancer cell line HT-29; test: MTT cytotoxicity (growth inhibition) assay, HT-29; assay type: cell-based
Procedure: as §1

[4] = test system: K562 leukemia cancer cell line; parameters: method as in PMID 18396050; details: ref [15], cited from earlier work
[5] = test system: human lung cancer cell line A-549; parameters: method as in PMID 32033084; details: reference compound; ref [30]; read-out: Cytotoxicity IC50 A-549; cited from earlier work
[6] = test system: human colon cancer cell line HT-29; parameters: method as in PMID 32033084; details: reference compound; ref [30]; read-out: Cytotoxicity IC50 HT-29; cited from earlier work
[7] = test system: human embryonic kidney cell line HEK-293; parameters: method as in PMID 32033084; details: reference compound; ref [30]; read-out: Cytotoxicity IC50 HEK-293; cited from earlier work
[8] = test system: HT-29; parameters: method as in PMID 18396050, PMID 18681482, PMID 22137934, PMID 22304851, PMID 24222525; details: known triazole analogues of CA-4; ref [15],[16],[17],[18],[19],[20]; read-out: IC50 HT-29 (Figure 2); cited from earlier work
[9] = A549, 48 h, read-out: Cytotoxicity IC50 A-549
[10] = HT-29, 48 h, read-out: Cytotoxicity IC50 HT-29
[11] = known triazole analogues of CA-4, read-out: IC50 K562 (Figure 2)

In the case of `COc1cc(-n2nncc2-c2ccccc2)cc(OC)c1OC` [3a, 5-phenyl-1-(3,4,5-trimethoxyphenyl)-1H-1,2,3-triazole], the IC50 [1, 9] is reported as > 200 µM, the IC50 at 48 h [2] is reported as > 200 µM and the IC50 [3, 10] is reported as > 100 µM.
In the case of `COc1cc(-n2nncc2-c2ccccc2Br)cc(OC)c1OC` [3b, 5-(2-bromophenyl)-1-(3,4,5-trimethoxyphenyl)-1H-1,2,3-triazole], the IC50 [1, 9] is reported as > 100 µM, the IC50 at 48 h [2] is reported as > 200 µM and the IC50 [3, 10] is reported as > 100 µM.
For `COc1cc(-n2nncc2-c2ccccc2[N+](=O)[O-])cc(OC)c1OC` [3c, 5-(2-nitrophenyl)-1-(3,4,5-trimethoxyphenyl)-1H-1,2,3-triazole], the IC50 [1, 9] was > 200 µM, the IC50 at 48 h [2] was > 200 µM and the IC50 [3, 10] was > 100 µM.
With `COc1cc(-n2nncc2-c2ccc(C)cc2)cc(OC)c1OC` [3d, 5-(p-tolyl)-1-(3,4,5-trimethoxyphenyl)-1H-1,2,3-triazole] the IC50 [1, 9] was > 200 µM, the IC50 at 48 h [2] was > 200 µM and the IC50 [3, 10] was > 100 µM.
With `COc1cc(-n2nncc2-c2ccc(C(F)(F)F)cc2)cc(OC)c1OC` [3e, 5-(4-(trifluoromethyl)phenyl)-1-(3,4,5-trimethoxyphenyl)-1H-1,2,3-triazole] the IC50 [1, 9] was > 100 µM, the IC50 at 48 h [2] was > 200 µM and the IC50 [3, 10] was 54 ± 3 µM.
For `COc1cc(-n2nncc2-c2ccc(F)cc2)cc(OC)c1OC` [3f, 5-(4-fluorophenyl)-1-(3,4,5-trimethoxyphenyl)-1H-1,2,3-triazole], the IC50 [1, 9] was > 200 µM, the IC50 at 48 h [2] was > 200 µM and the IC50 [3, 10] was > 200 µM.
In the case of `COc1cc(-n2nncc2-c2ccc(Cl)cc2)cc(OC)c1OC` [3g, 5-(4-chlorophenyl)-1-(3,4,5-trimethoxyphenyl)-1H-1,2,3-triazole], the IC50 [1, 9] is reported as > 100 µM, the IC50 at 48 h [2] is reported as > 200 µM and the IC50 [3, 10] is reported as > 100 µM.
In the case of `COc1cc(-n2nncc2-c2ccc(Br)cc2)cc(OC)c1OC` [3h, 5-(4-bromophenyl)-1-(3,4,5-trimethoxyphenyl)-1H-1,2,3-triazole], the IC50 [1, 9] is reported as > 100 µM, the IC50 at 48 h [2] is reported as > 200 µM and the IC50 [3, 10] is reported as > 100 µM.
In the case of `COc1ccc(-c2cnnn2-c2cc(OC)c(OC)c(OC)c2)cc1` [3i, 5-(4-methoxyphenyl)-1-(3,4,5-trimethoxyphenyl)-1H-1,2,3-triazole], the IC50 ([4]; previously described, read-out: IC50 K562 leukemia cancer cell line) is listed as 0.027 µM, the IC50 [1, 9] is listed as 0.022 ± 0.007 µM and the IC50 at 48 h [2] is listed as 35 ± 9 µM. The IC50 [3, 10] was 0.02 ± 0.009 µM.
With `CCOc1ccc(-c2cnnn2-c2cc(OC)c(OC)c(OC)c2)cc1` [3j, 5-(4-ethoxyphenyl)-1-(3,4,5-trimethoxyphenyl)-1H-1,2,3-triazole] the IC50 [1, 9] was 5.8 ± 0.8 µM, the IC50 at 48 h [2] was 19 ± 4 µM and the IC50 [3, 10] was 0.0021 ± 0.0009 µM. It also gave an IC50 ([3]; HT-29, 48 h incubation, rounded value, read-out: IC50 HT-29) of 0.002 µM.
With `COc1ccc(-c2cnnn2-c2cc(OC)c(OC)c(OC)c2)c(Br)c1` [3k, 5-(2-bromo-4-methoxyphenyl)-1-(3,4,5-trimethoxyphenyl)-1H-1,2,3-triazole] the IC50 [1, 9] was 33 ± 2 µM, the IC50 at 48 h [2] was > 100 µM and the IC50 [3, 10] was 56 ± 4 µM.
In the case of `COc1ccc(Br)c(-c2cnnn2-c2cc(OC)c(OC)c(OC)c2)c1` [3l, 5-(2-bromo-5-methoxyphenyl)-1-(3,4,5-trimethoxyphenyl)-1H-1,2,3-triazole], the IC50 [1, 9] is reported as > 200 µM, the IC50 at 48 h [2] is reported as > 200 µM and the IC50 [3, 10] is reported as > 100 µM.
In the case of `CCOc1ccc(-c2cnnn2-c2cc(OC)c(OC)c(OC)c2)cc1Br` [3m, 5-(3-bromo-4-ethoxyphenyl)-1-(3,4,5-trimethoxyphenyl)-1H-1,2,3-triazole], the IC50 [1, 9] is reported as 59 ± 1 µM, the IC50 at 48 h [2] is reported as > 200 µM and the IC50 [3, 10] is reported as 20 ± 5 µM.
`COc1ccc(-c2cnnn2-c2cc(OC)c(OC)c(OC)c2)cc1Cl` [3n, 5-(3-chloro-4-methoxyphenyl)-1-(3,4,5-trimethoxyphenyl)-1H-1,2,3-triazole] gave an IC50 [1, 9] of 0.0032 ± 0.0009 µM, an IC50 ([1]; A549, 48 h incubation, rounded value, read-out: IC50 A-549) of 0.003 µM and an IC50 at 48 h [2] of 0.025 ± 0.008 µM. For the same molecule, the IC50 [3, 10] was 0.021 ± 0.006 µM.
For `COc1ccc(-c2cnnn2-c2cc(OC)c(OC)c(OC)c2)cc1OC` [3o, 5-(3,4-dimethoxyphenyl)-1-(3,4,5-trimethoxyphenyl)-1H-1,2,3-triazoletriazole], the IC50 [1, 9] was > 200 µM, the IC50 at 48 h [2] was > 200 µM and the IC50 [3, 10] was > 100 µM.
For `COc1cc(-n2nncc2-c2ccc(O)c(Br)c2)cc(OC)c1OC` [3p, 2-bromo-4-(1-(3,4,5-trimethoxyphenyl)-1H-1,2,3-triazol-5-yl)phenol], the IC50 [1, 9] was > 200 µM, the IC50 at 48 h [2] was > 200 µM and the IC50 [3, 10] was > 200 µM.
In the case of `COc1cc(-n2nncc2-c2ccc(O)c(O)c2)cc(OC)c1OC` [3q, 4-(1-(3,4,5-trimethoxyphenyl)-1H-1,2,3-triazol-5-yl)benzene-1,2-diol], the IC50 [1, 9] is reported as > 200 µM, the IC50 at 48 h [2] is reported as > 200 µM and the IC50 [3, 10] is reported as > 200 µM.
For `COc1ccc(/C=C\c2cc(OC)c(OC)c(OC)c2)cc1O` [CA-4, combretastatin A-4], the IC50 [5] is listed as 0.428 ± 0.004 µM, the IC50 [6] is listed as 4.2 ± 0.5 µM and the IC50 [7] is listed as 25 ± 3 µM.
In the case of `COc1ccc(-c2cnnn2-c2cc(OC)c(OC)c(OC)c2)cc1Br` [R^1 = H, R^2 = Br], the IC50 [4, 11] is given as 0.057 µM.
In the case of `COc1ccc(-c2cnnn2-c2cc(OC)c(OC)c(OC)c2)cc1N` [R^1 = H, R^2 = NH2], the IC50 [4, 11] is listed as 0.011 µM.
For `COc1ccc(-c2cnnn2-c2cc(OC)c(OC)c(OC)c2)cc1[N+](=O)[O-]` [R^1 = H, R^2 = NO2], the IC50 [4, 11] is listed as 0.46 µM.
In the case of `COc1ccc(-c2cnnn2-c2cc(OC)c(OC)c(OC)c2)c(F)c1F` [R^1 = R^2 = F], the IC50 [8] is listed as 1.9 µM.
For `COc1ccc(-c2cnnn2-c2cc(OC)c(OC)c(OC)c2)c(N)c1N` [R^1 = R^2 = NH2], the IC50 [8] is given as 17.2 µM.
In the case of `COc1cc(-n2nncc2-c2ccc(OC)c([N+](=O)[O-])c2[N+](=O)[O-])cc(OC)c1OC` [R^1 = R^2 = NO2], the IC50 [8] is given as 12 µM.
